Read-outs that look alike come from different tables or passages of the source.
Columns and labels:
[1] = test system: wild oats (Avena fatua L., AVEFA); assay: Greenhouse evaluation, control of wild oats; type: in vivo; conditions: pyroxsulam:cloquintocet (AE) 1:2.1, postemergence spray
Description: A peat based potting soil, Metro-mix 360, (produced by Sun Gro Horticulture Canada CM Ltd) was used as the soil media for this test. Metro-mix 360 is a growing medium consisting of Canadian sphagnum peat moss, coarse perlite, bark ash, starter nutrient charge (with gypsum) and slow release nitrogen and dolomitic limestone. Several seeds of each crop or weed species were planted in 10 cm square pots and top watered twice daily. Plant material was propagated in greenhouse zone E2 at temperatures ranging from 18 to 20° C. and 50 to 60% relative humidity. Natural light was supplemented with 1000-watt metal halide overhead lamps with an average illumination of 500 microeinsteins per square meter per second (μE m^−2 s^−1) photosynthetic active radiation (PAR). Day length was 16 hours. Plant material was top-watered prior to treatment and sub-irrigated after treatment.
Herbicides were applied with a track sprayer manufactured by Allen Machine Works and located in building 306, room E1-483, at the Dow AgroSciences Indianapolis, Ind. Global Headquarters site (9330 Zionsville Road, Indianapolis, Ind., USA). The track sprayer was calibrated to deliver 50 L/ha at 40 psi (262 kPa) pressure utilizing an 8001E even flat fan nozzle tip with a speed of 1.6 mph (2.6 km/h). The nozzle height was 46 cm above the plant canopy. Appropriate amounts of formulated product were added to vials as calculated by the software package ARM8 (Gylling Data Management Inc.). The vials contained a pH 7 phosphate buffer (Fischer Scientific) and the herbicide aliquots were diluted to a total volume of 60 ml. The growth stage of the crop and weed species at application was 2 to 4 leaf (Table 11). The application rates were 0, 17.8 and 37.6 g ai/ha of pyroxsulam for crop tolerance comparisons and 0, 2.35 and 4.7 g ai/ha of pyroxsulam for weed control comparisons. Cloquintocet was applied at a 1:2.1 ratio of pyroxsulam (g ai):cloquintocet (g ae) in all treatments containing the safener. Treatments were replicated 4 times. Plants were returned to the greenhouse after treatment and sub-watered throughout the duration of the experiment. Plant material was fertilized twice weekly with Hoagland's fertilizer solution that is readily available in the greenhouses. Percent visual injury assessments were made on a scale of 0 to 100% as compared to the untreated control plants (where 0 is equal to no injury and 100 is equal to complete death of the plant.
Visual determination of the control of wild oats (Avena fatua L., AVEFA) treated with pyroxsulam alone and with several forms of cloquintocet was conducted. All forms of cloquintocet were applied at a 1:2.1 weight ratio of pyroxsulam:cloquintocet (AE).

[2] = test system: cell membranes
[3] = Water solubility of cloquintocet salts at 20° C.
[4] = test system: spring wheat (Triticum aestivum L., TRZAS); conditions: pyroxsulam:cloquintocet (AE) 1:2.1, postemergence spray
[5] = test system: durum wheat (Triticum durum L. TRZDU); conditions: pyroxsulam:cloquintocet (AE) 1:2.1, postemergence spray
[6] = test system: cell membranes; remark: listed apart in the source
[7] = test system: cell membranes; assay: Neutral Red Release (NRR) assay, eye irritation potential of aqueous CQC salt solutions; conditions: for NRR50, mg ae/mL: aqueous solution of the CQC salt diluted in PBS, NRR50 corrected to CQC acid equivalent concentration
[8] = solubility solution, water, 20° C.

O=C(O)COc1ccc(Cl)c2cccnc12 [Acid, Cloquintocet]
AVEFA Control 21 DAA (% Control) ([1]; pyroxsulam 2.35 g ai/ha): 96 % Control | AVEFA Control 21 DAA (% Control) ([1]; pyroxsulam 4.7 g ai/ha): 99 % Control | NRR50, mg ae/mL [2]: 9 mg ae/mL | Calculated water solubility wt % ai ([3]; pH 7 buffer solution, 20° C.): 1.4 wt % ai | Density ([3]; pH 7 buffer solution, 20° C.): 1.0 g/mL | Neat pH ([3]; pH 7 buffer solution, 20° C.): 5.6 | Water Solubility wt % ae ([3]; pH 7 buffer solution, 20° C.): 1.4 wt % ae | Water Solubility wt % ae ([3]; pH 7 buffer solution, 20° C., listed as CQC acid): about 1.4 wt % ae

OCCNCCO [Diethanolamine]
AVEFA Control 21 DAA (% Control) ([1]; pyroxsulam 2.35 g ai/ha): 88 % Control | AVEFA Control 21 DAA (% Control) ([1]; pyroxsulam 4.7 g ai/ha): 94 % Control

CCNCC [Diethylamine]
AVEFA Control 21 DAA (% Control) ([1]; pyroxsulam 2.35 g ai/ha): 88 % Control | AVEFA Control 21 DAA (% Control) ([1]; pyroxsulam 4.7 g ai/ha): 99 % Control | TRZAS Injury 22 DAA (% Injury) ([4]; pyroxsulam 18.8 g ai/ha): 5 % Injury | TRZAS Injury 22 DAA (% Injury) ([4]; pyroxsulam 37.6 g ai/ha): 15 % Injury | TRZDU Injury 22 DAA (% Injury) ([5]; pyroxsulam 18.8 g ai/ha): 12 % Injury | TRZDU Injury 22 DAA (% Injury) ([5]; pyroxsulam 37.6 g ai/ha): 18 % Injury

CC(O)CNCC(C)O (centres unmarked) [Diisopropanolamine]
Density [3, 8]: 1.1 g/mL | Neat pH [3, 8]: 6.4

CC(C)NC(C)C [Diisopropylamine]
Density [3]: 1.1 g/mL | Neat pH [3]: 5.9

CNC [Dimethylamine]
AVEFA Control 21 DAA (% Control) ([1]; pyroxsulam 2.35 g ai/ha): 88 % Control | AVEFA Control 21 DAA (% Control) ([1]; pyroxsulam 4.7 g ai/ha): 90 % Control | TRZAS Injury 22 DAA (% Injury) ([4]; pyroxsulam 18.8 g ai/ha): 11 % Injury | TRZAS Injury 22 DAA (% Injury) ([4]; pyroxsulam 37.6 g ai/ha): 11 % Injury | TRZDU Injury 22 DAA (% Injury) ([5]; pyroxsulam 18.8 g ai/ha): 9 % Injury | TRZDU Injury 22 DAA (% Injury) ([5]; pyroxsulam 37.6 g ai/ha): 15 % Injury | Density [3]: 1.2 g/mL | Neat pH [3]: 6

CC(O)CN (centres unmarked) [Isopropanolamine]
AVEFA Control 21 DAA (% Control) ([1]; pyroxsulam 2.35 g ai/ha): 80 % Control | AVEFA Control 21 DAA (% Control) ([1]; pyroxsulam 4.7 g ai/ha): 90 % Control | NRR50 (% v/v) [6]: 29 % v/v | NRR50, mg ae/mL [6]: 56 mg ae/mL | TRZAS Injury 22 DAA (% Injury) ([4]; pyroxsulam 18.8 g ai/ha): 2 % Injury | TRZAS Injury 22 DAA (% Injury) ([4]; pyroxsulam 37.6 g ai/ha): 20 % Injury | TRZDU Injury 22 DAA (% Injury) ([5]; pyroxsulam 18.8 g ai/ha): 9 % Injury | TRZDU Injury 22 DAA (% Injury) ([5]; pyroxsulam 37.6 g ai/ha): 12 % Injury | Density [3]: 1.1 g/mL | Neat pH [3, 8]: 7.4

CC(C)N [Isopropylamine]
AVEFA Control 21 DAA (% Control) ([1]; pyroxsulam 2.35 g ai/ha): 90 % Control | AVEFA Control 21 DAA (% Control) ([1]; pyroxsulam 4.7 g ai/ha): 99 % Control | Density [3]: 1.1 g/mL | Neat pH [3]: 5.7

NCCO [Monoethanolamine]
Density [3, 8]: 1.1 g/mL | Neat pH [3, 8]: 6.3

CN(C)CCO [N,N-dimethylethanolamine]
Neat pH [3, 8]: 5.7

COc1cc(OC)n2nc(NS(=O)(=O)c3c(C(F)(F)F)ccnc3OC)nc2n1 [Pyroxsulam, N-(5,7-dimethoxy [1,2,4]triazolo [1,5-a]pyrimidin-2-yl)-2-methoxy-4-(trifluoromethyl)pyridine-3-sulfonamide]
AVEFA Control 21 DAA (% Control) ([1]; pyroxsulam 2.35 g ai/ha): 86 % Control | AVEFA Control 21 DAA (% Control) ([1]; pyroxsulam 4.7 g ai/ha): 98 % Control

CCCCCCCCCCCCOS(=O)(=O)[O-].[Na+] [SDS, Sodium dodecyl sulfate]
NRR assay result of positive control ([7]; 5 mg/ml, two independent assay replicates): positive

CCCCCC(C)OC(=O)COc1ccc(Cl)c2cccnc12 (centres unmarked) [mexyl, cloquintocet-mexyl, reference compound]
AVEFA Control 21 DAA (% Control) ([1]; pyroxsulam 2.35 g ai/ha): 71 % Control | AVEFA Control 21 DAA (% Control) ([1]; pyroxsulam 4.7 g ai/ha): 84 % Control

Ammonium [reference compound]
Density [3, 8]: 1.0 g/mL | Neat pH [3, 8]: 5.7 | NRR50, mg ae/mL [7]: 3 mg ae/mL

cloquintocet choline salt
AVEFA Control 21 DAA (% Control) ([1]; pyroxsulam 2.35 g ai/ha): 94 % Control | AVEFA Control 21 DAA (% Control) ([1]; pyroxsulam 4.7 g ai/ha): 99 % Control | TRZAS Injury 22 DAA (% Injury) ([4]; pyroxsulam 18.8 g ai/ha): 6 % Injury | TRZAS Injury 22 DAA (% Injury) ([4]; pyroxsulam 37.6 g ai/ha): 21 % Injury | TRZDU Injury 22 DAA (% Injury) ([5]; pyroxsulam 18.8 g ai/ha): 9 % Injury | TRZDU Injury 22 DAA (% Injury) ([5]; pyroxsulam 37.6 g ai/ha): 12 % Injury | Density [3]: 1.1 g/mL | Neat pH [3]: 6.8 | NRR50, mg ae/mL [7]: 213 mg ae/mL
